Results published in patent publication US20260055081A1, “Metal Chelator Compounds, Coordination Complexes, and Methods of Preparation and Use Thereof” (University of Puerto Rico, priority 2022, published 2026).

What was measured:
[1] = system: Jurkat Leukemia cell line; test: Jurkat cell viability (MTT assay); format: cell-based; conditions: 72 h
Procedure: Jurkat cell culturing and cell viability studies. Jurkat cells are nonadherent cells, and they were cultured in an RPMI-1640 media (supplemented with 10% FBS (v/v) and 1% antibiotic solution (v/v) of penicillin/streptomycin) in non-tissue-culture treated 25 mL flasks according to the known protocol provided by the supplier ATCC. The cell passaging was done at 70% confluency by taking 3 mL of cells and diluting to 25 mL of fresh media. The cells were incubated at 37° C. in 5% CO2 atmosphere.
Jurkat cytotoxicity of DefNEtTrp (6), Def (5), NEtTrp (4), Trp, and 1:1 combinations of 5 with 4 and 5 with Trp was determined by the colorimetric 3-(4,5-dimethylthiazol-2-yl)-2,5-diphenyltetrazolium bromide (MTT) assay. Incubation conditions were the same in all the steps. Cells in 80-95% confluence (grown in standard circular tissue culture dishes, BD Falcon) were separately seeded into 96-well plates using phenol red free RPMI-1640 media (containing 10% FBS and 1% streptomycin/penicillin) in a volume of 50 μL at a concentration of 5.0×10^5 cells/mL. Following this procedure, the Jurkat cells were treated immediately. Stock solution of the compounds were first prepared in DMF at 5 mM and stored at 4° C. for up to 30 days. The stock solution was diluted to specific concentrations using 1×PBS (0.2-20 μM) while DMF was maintained at 1% (v/v). 50 μL of diluted solutions were added in all cell containing wells with at least six replicates per concentration (n=6). The final percentage (v/v) of DMF was 0.5%. The cells were also co-treated with 5 with 4 and 5 with Trp in a 1:1 mole equivalent ratio over the same concentration range but as a combined concentration of both compounds. Control wells in the plates consisted of one lane of cells treated with media alone including 0.5% DMF (v/v) as the measure of 100% viable cell growth in the media. Another control lane consisted of no cells with media including 0.5% DMF (v/v) as a measure of the background with no viable cells. The plates were incubated for 72 h. At 4 h before completion of the incubation time, 25 μL of MTT solution (sterile filtered 5 mg/mL solution, dissolved in 1×PBS buffer) was added to each well. During addition of the MTT solution, the plates were protected from light. After completion a 50 μL portion of 4% (w/v) SDS solution (sterile filtered, dissolved in Tris buffer 1M, pH=10) was added to each well and incubated to solubilize formazan crystals after MTT cell labeling. The absorbance of each well was measured at 570 nm (absorbance of the formazan product at pH >10.0) and 800 nm (as a background correction) using a Tecan plate reader. The absorbance of all wells was compared to the absorbance of the untreated cells with the MTT set as the 100% viable cell standard and the absorbance of the no cell control set as the 0% viable cell standard. Nonlinear regression in GraphPad Prism 8 was utilized to fit the growth curve over the various drug concentrations to determine the half-maximal inhibitory concentration (IC50). All cell viability experiments, including non-Jurkat cells, were repeated at least once for biological duplicates. To confirm cell death at the higher concentration dosages of the compounds and combinations, dead cells were blue stained with trypan blue and visually inspected under the microscope.

CNS cancer cell lines = test: NCI 60 five-dose screen, CNS panel; format: cell-based, human; conditions: 48 h
Procedure: National Cancer Institute Cancer Cell Line (NCI 60) Screen of DefNEtTrp. Details of the methodology for NCI 60 cell line screening are described at http://dtp.nci.nih.gov/branches/btb/ivclsp.html. The cells, grown in supplemented RPMI-1640 medium, are seeded in 96 well plates at an appropriate density and incubated for 24 h. The test compounds are dissolved in DMSO and incubated with cells at a single dose of 10.0 μM for 48 h. The assay is terminated by addition of cold trichloroacetic acid, and the cells are fixed and stained with sulforhodamine B. Bound stain is solubilized, and the absorbance is read on an automated plate reader. […] Using the seven absorbance measurements [time zero, […], control growth, (C), and test growth in the presence of drug at the five concentration levels (Tf)], the percentage growth was calculated at each of the drug concentrations levels as: [(Tf−Ti)/(C−Ti)]×100 for concentrations for which Tf≥Ti and [(Tf−Ti)/Ti]×100 for concentrations for which Tf<Ti. Three-dose response parameters (GI50, TGI, and LC50) were calculated for each of the experimental agents in five dose assay. […] The total growth inhibition (TGI) was calculated from Tf=Ti, which was the drug concentration resulting in total growth inhibition and signified the cytostatic effect. […]

[2] = system: NCI 60 human tumor cell lines; test: NCI 60 cancer cell line screen, all cell lines tested; format: cell-based; conditions: 48 h
Procedure: National Cancer Institute Cancer Cell Line (NCI 60) Screen of DefNEtTrp. Details of the methodology for NCI 60 cell line screening are described at http://dtp.nci.nih.gov/branches/btb/ivclsp.html. The cells, grown in supplemented RPMI-1640 medium, are seeded in 96 well plates at an appropriate density and incubated for 24 h. The test compounds are dissolved in DMSO and incubated with cells at a single dose of 10.0 μM for 48 h. The assay is terminated by addition of cold trichloroacetic acid, and the cells are fixed and stained with sulforhodamine B. Bound stain is solubilized, and the absorbance is read on an automated plate reader. […] Using the seven absorbance measurements [time zero, […], control growth, (C), and test growth in the presence of drug at the five concentration levels (Tf)], the percentage growth was calculated at each of the drug concentrations levels as: [(Tf−Ti)/(C−Ti)]×100 for concentrations for which Tf≥Ti and [(Tf−Ti)/Ti]×100 for concentrations for which Tf<Ti. Three-dose response parameters (GI50, TGI, and LC50) were calculated for each of the experimental agents in five dose assay. Growth inhibition of 50% (GI50) was calculated from 100×[(Tf−Ti)/(C−Ti)]=50, which was the drug concentration resulting in a 50% reduction in the net protein increase (as measured by sulforhodamine B, SRB staining) in control cells during the drug incubation. The total growth inhibition (TGI) was calculated from Tf=Ti, which was the drug concentration resulting in total growth inhibition and signified the cytostatic effect. The 50% cellular death (LC50) was calculated from 100×[(Tf−Ti)/Ti]=−50, indicating a net loss of cells following treatment which indicated the concentration of drug resulting in a 50% reduction in the measured protein at the end of the drug treatment as compared to that at the beginning. […] Log GI50, log TGI, and log LC50 are the logarithm molar concentrations producing 50% growth inhibition (GI50), a total growth inhibition (TGI), and a 50% cellular death (LC50), respectively.

`Nc1cccnc1/C=N/NC(=S)NCCNC(=O)c1ccc(-n2nc(-c3ccccc3O)nc2-c2ccccc2O)cc1` [DefNEtTrp, deferasirox nitrogen ethyl triapine] was tested, and the IC50 ([1]; Homo sapiens, Jurkat cell line, MTT) was 770 ± 60 nM, the “cytotoxic effect compared with Def, NEtTrp and Trp in single drug and combination drug treatments” value ([1]; Jurkat) was “superior cytotoxic effect” and the “TGI (calculated average)” value (CNS cancer cell lines; cell lines in which TGI was observed) was 12430 nM. It also gave a GI50 (CNS cancer cell lines; Homo sapiens, read-out: GI50 (calculated average)) of 500 nM, a GI50 ([2]; Homo sapiens, five-dose assay, average over all cell lines, read-out: average GI50 concentration, all cell lines) of 1200 nM and an LC50 ([2]; Homo sapiens, five-dose assay, average over cell lines with 50% cell death) of 38900 nM. The “share of cell lines tested with total cell growth inhibition” value ([2]; five-dose assay) was 77%, the “share of tested cell lines with 50% cell death” value ([2]; five-dose assay) was 14% and the “average TGI concentration” value ([2]; five-dose assay, average over cell lines in which TGI was observed) was 8500 nM. For the same compound, the “antiproliferative activity in one-dose test” value ([2]; one-dose test of 10 μM) was “very promising broad spectrum antiproliferative activity”.
